Experimental data taken from the supplement of paper PMC10307832.

Legend:
Assay in all cases: relative viability (nuclei count vs DMSO), 5 days (fraction); higher = more cells survive
Everolimus = compound: CO[C@H]1C[C@@H]2CC[C@@H](C)[C@@](O)(O2)C(=O)C(=O)N2CCCC[C@H]2C(=O)O[C@H]([C@H](C)C[C@@H]2CC[C@@H](OCCO)[C@H](OC)C2)CC(=O)[C@H](C)/C=C(\C)[C@@H](O)[C@@H](OC)C(=O)[C@H](C)C[C@H](C)/C=C/C=C/C=C/1C [Everolimus]
Summary of the method: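 Lung cancer cell lines in 1536-well plates were kept overnight at 37 °C, then pinned with five library-drug doses (not always all listed) spaced by √10 on vehicle-anchored plates. After 5 days without medium change, cells were fixed, permeabilised and Hoechst-stained in one step, imaged at 4×, and nuclei were counted with MetaXpress. Viability is treated-well nuclei divided by vehicle-well nuclei, taken as the median over plates. Plates passed only with control CV below 25% and at least one doubling.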

Everolimus + Foretinib = compound: CO[C@H]1C[C@@H]2CC[C@@H](C)[C@@](O)(O2)C(=O)C(=O)N2CCCC[C@H]2C(=O)O[C@H]([C@H](C)C[C@@H]2CC[C@@H](OCCO)[C@H](OC)C2)CC(=O)[C@H](C)/C=C(\C)[C@@H](O)[C@@H](OC)C(=O)[C@H](C)C[C@H](C)/C=C/C=C/C=C/1C [Everolimus] + COc1cc2c(Oc3ccc(NC(=O)C4(C(=O)Nc5ccc(F)cc5)CC4)cc3F)ccnc2cc1OCCCN1CCOCC1 [Foretinib] (partner 0.25 µM)
Summary of the method: (§1)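 Lung cancer cell lines were seeded in 1536-well plates and dosed by pin tool the next day, with either a single drug or a fixed anchor-drug dose combined with five library-drug doses (not always all listed) spaced in √10 steps. Five days later, one step fixed the cells and stained their nuclei (final 0.05% Triton X-100, 1% formaldehyde, 1 ug/ml Hoechst), and nuclei were counted on 4× images. Relative viability is the nuclei count in treated wells divided by the count in vehicle wells, and each value is the median of duplicate plates.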

Everolimus + Palbociclib = compound: CO[C@H]1C[C@@H]2CC[C@@H](C)[C@@](O)(O2)C(=O)C(=O)N2CCCC[C@H]2C(=O)O[C@H]([C@H](C)C[C@@H]2CC[C@@H](OCCO)[C@H](OC)C2)CC(=O)[C@H](C)/C=C(\C)[C@@H](O)[C@@H](OC)C(=O)[C@H](C)C[C@H](C)/C=C/C=C/C=C/1C [Everolimus] + CC(=O)c1c(C)c2cnc(Nc3ccc(N4CCNCC4)cn3)nc2n(C2CCCC2)c1=O [Palbociclib] (partner 0.5 µM)
Summary of the method: as §1

Everolimus + OSI-027 = compound: CO[C@H]1C[C@@H]2CC[C@@H](C)[C@@](O)(O2)C(=O)C(=O)N2CCCC[C@H]2C(=O)O[C@H]([C@H](C)C[C@@H]2CC[C@@H](OCCO)[C@H](OC)C2)CC(=O)[C@H](C)/C=C(\C)[C@@H](O)[C@@H](OC)C(=O)[C@H](C)C[C@H](C)/C=C/C=C/C=C/1C [Everolimus] + COc1cccc2cc(-c3nc([C@H]4CC[C@H](C(=O)O)CC4)n4ncnc(N)c34)[nH]c12 [OSI-027] (partner 0.5 µM)
Summary of the method: as §1

For SK-LU-1, which relative viability (Everolimus; 0.01 µM) is on record?
The relative viability was 0.652.

And the relative viability (Everolimus; 0.03162 µM)?
The relative viability was 0.583.

And the relative viability (Everolimus; 0.1 µM)?
The relative viability was 0.593.

And the relative viability (Everolimus; 0.3162 µM)?
Its relative viability is 0.591.

What about the relative viability (Everolimus; 1 µM) of the same cell line?
The relative viability was 0.639.

What about the relative viability (Everolimus + Foretinib; first compound 0.01 µM) of the same cell line?
The relative viability was 0.41.

What about the relative viability (Everolimus + Foretinib; first compound 0.03162 µM) of the same cell line?
The relative viability was 0.438.

And the relative viability (Everolimus + Foretinib; first compound 0.1 µM)?
The relative viability was 0.449.

What about the relative viability (Everolimus + Foretinib; first compound 0.3162 µM) of the same cell line?
The relative viability was 0.432.

And the relative viability (Everolimus + Foretinib; first compound 1 µM)?
Its relative viability is 0.469.

What about the relative viability (Everolimus + Palbociclib; first compound 0.01 µM) of the same cell line?
The relative viability was 0.444.

What about the relative viability (Everolimus + Palbociclib; first compound 0.03162 µM) of the same cell line?
Its relative viability is 0.342.

What about the relative viability (Everolimus + Palbociclib; first compound 0.1 µM) of the same cell line?
Its relative viability is 0.303.

And the relative viability (Everolimus + Palbociclib; first compound 0.3162 µM)?
The relative viability was 0.318.

And the relative viability (Everolimus + Palbociclib; first compound 1 µM)?
The relative viability was 0.298.

And the relative viability (Everolimus + OSI-027; first compound 0.01 µM)?
The relative viability was 0.225.

And the relative viability (Everolimus + OSI-027; first compound 0.03162 µM)?
The relative viability was 0.187.

What about the relative viability (Everolimus + OSI-027; first compound 0.1 µM) of the same cell line?
The relative viability was 0.248.

And the relative viability (Everolimus + OSI-027; first compound 0.3162 µM)?
The relative viability was 0.269.

What about the relative viability (Everolimus + OSI-027; first compound 1 µM) of the same cell line?
The relative viability was 0.265.

Which results are given for SK-MES-1?
relative viability (Everolimus; 0.01 µM): 0.755; relative viability (Everolimus; 0.03162 µM): 0.75; relative viability (Everolimus; 0.1 µM): 0.74; relative viability (Everolimus; 0.3162 µM): 0.663; relative viability (Everolimus; 1 µM): 0.622; relative viability (Everolimus + Foretinib; first compound 0.01 µM): 0.701; relative viability (Everolimus + Foretinib; first compound 0.03162 µM): 0.662; relative viability (Everolimus + Foretinib; first compound 0.1 µM): 0.638; relative viability (Everolimus + Foretinib; first compound 0.3162 µM): 0.501; relative viability (Everolimus + Foretinib; first compound 1 µM): 0.547; relative viability (Everolimus + Palbociclib; first compound 0.01 µM): 0.239; relative viability (Everolimus + Palbociclib; first compound 0.03162 µM): 0.264; relative viability (Everolimus + Palbociclib; first compound 0.1 µM): 0.258; relative viability (Everolimus + Palbociclib; first compound 0.3162 µM): 0.273; relative viability (Everolimus + Palbociclib; first compound 1 µM): 0.243; relative viability (Everolimus + OSI-027; first compound 0.01 µM): 0.398; relative viability (Everolimus + OSI-027; first compound 0.03162 µM): 0.512; relative viability (Everolimus + OSI-027; first compound 0.1 µM): 0.499; relative viability (Everolimus + OSI-027; first compound 0.3162 µM): 0.414; relative viability (Everolimus + OSI-027; first compound 1 µM): 0.483

With SW 900 as the cell line, how does the relative viability (Everolimus; 0.01 µM) read?
The relative viability was 0.578.

What about the relative viability (Everolimus; 0.03162 µM) of the same cell line?
The relative viability was 0.498.

What about the relative viability (Everolimus; 0.1 µM) of the same cell line?
Its relative viability is 0.545.

And the relative viability (Everolimus; 0.3162 µM)?
Its relative viability is 0.57.

What about the relative viability (Everolimus; 1 µM) of the same cell line?
Its relative viability is 0.512.

And the relative viability (Everolimus + Foretinib; first compound 0.01 µM)?
Its relative viability is 0.685.

And the relative viability (Everolimus + Foretinib; first compound 0.03162 µM)?
Its relative viability is 0.477.

And the relative viability (Everolimus + Foretinib; first compound 0.1 µM)?
Its relative viability is 0.748.

What about the relative viability (Everolimus + Foretinib; first compound 0.3162 µM) of the same cell line?
Its relative viability is 0.525.

What about the relative viability (Everolimus + Foretinib; first compound 1 µM) of the same cell line?
Its relative viability is 0.508.

What about the relative viability (Everolimus + Palbociclib; first compound 0.01 µM) of the same cell line?
Its relative viability is 0.445.

What about the relative viability (Everolimus + Palbociclib; first compound 0.03162 µM) of the same cell line?
The relative viability was 0.331.

And the relative viability (Everolimus + Palbociclib; first compound 0.1 µM)?
The relative viability was 0.406.

What about the relative viability (Everolimus + Palbociclib; first compound 0.3162 µM) of the same cell line?
Its relative viability is 0.383.

And the relative viability (Everolimus + Palbociclib; first compound 1 µM)?
Its relative viability is 0.318.

What about the relative viability (Everolimus + OSI-027; first compound 0.01 µM) of the same cell line?
The relative viability was 0.317.

And the relative viability (Everolimus + OSI-027; first compound 0.03162 µM)?
The relative viability was 0.273.

What about the relative viability (Everolimus + OSI-027; first compound 0.1 µM) of the same cell line?
Its relative viability is 0.25.

And the relative viability (Everolimus + OSI-027; first compound 0.3162 µM)?
The relative viability was 0.35.

What about the relative viability (Everolimus + OSI-027; first compound 1 µM) of the same cell line?
The relative viability was 0.244.

For SW 1573, which relative viability (Everolimus; 0.01 µM) is on record?
Its relative viability is 0.585.

What about the relative viability (Everolimus; 0.03162 µM) of the same cell line?
The relative viability was 0.555.

And the relative viability (Everolimus; 0.1 µM)?
The relative viability was 0.546.

What about the relative viability (Everolimus; 0.3162 µM) of the same cell line?
Its relative viability is 0.544.

And the relative viability (Everolimus; 1 µM)?
The relative viability was 0.519.

And the relative viability (Everolimus + Foretinib; first compound 0.01 µM)?
The relative viability was 0.584.

What about the relative viability (Everolimus + Foretinib; first compound 0.03162 µM) of the same cell line?
The relative viability was 0.647.

And the relative viability (Everolimus + Foretinib; first compound 0.1 µM)?
The relative viability was 0.589.

And the relative viability (Everolimus + Foretinib; first compound 0.3162 µM)?
Its relative viability is 0.58.

And the relative viability (Everolimus + Foretinib; first compound 1 µM)?
The relative viability was 0.52.

And the relative viability (Everolimus + Palbociclib; first compound 0.01 µM)?
Its relative viability is 0.237.

What about the relative viability (Everolimus + Palbociclib; first compound 0.03162 µM) of the same cell line?
Its relative viability is 0.201.

What about the relative viability (Everolimus + Palbociclib; first compound 0.1 µM) of the same cell line?
The relative viability was 0.175.

And the relative viability (Everolimus + Palbociclib; first compound 0.3162 µM)?
Its relative viability is 0.224.

And the relative viability (Everolimus + Palbociclib; first compound 1 µM)?
Its relative viability is 0.225.

And the relative viability (Everolimus + OSI-027; first compound 0.01 µM)?
Its relative viability is 0.42.

What about the relative viability (Everolimus + OSI-027; first compound 0.03162 µM) of the same cell line?
Its relative viability is 0.309.

And the relative viability (Everolimus + OSI-027; first compound 0.1 µM)?
Its relative viability is 0.352.

And the relative viability (Everolimus + OSI-027; first compound 0.3162 µM)?
The relative viability was 0.345.

What about the relative viability (Everolimus + OSI-027; first compound 1 µM) of the same cell line?
Its relative viability is 0.365.

UMC-11 was tested. Which relative viability (Everolimus; 0.01 µM) did it give?
Its relative viability is 0.376.

And the relative viability (Everolimus; 0.03162 µM)?
Its relative viability is 0.415.

And the relative viability (Everolimus; 0.1 µM)?
Its relative viability is 0.374.

And the relative viability (Everolimus; 0.3162 µM)?
Its relative viability is 0.44.

What about the relative viability (Everolimus; 1 µM) of the same cell line?
Its relative viability is 0.468.

What about the relative viability (Everolimus + Foretinib; first compound 0.01 µM) of the same cell line?
Its relative viability is 0.478.

What about the relative viability (Everolimus + Foretinib; first compound 0.03162 µM) of the same cell line?
The relative viability was 0.371.

What about the relative viability (Everolimus + Foretinib; first compound 0.1 µM) of the same cell line?
Its relative viability is 0.441.

What about the relative viability (Everolimus + Foretinib; first compound 0.3162 µM) of the same cell line?
The relative viability was 0.422.

And the relative viability (Everolimus + Foretinib; first compound 1 µM)?
The relative viability was 0.401.

And the relative viability (Everolimus + Palbociclib; first compound 0.01 µM)?
The relative viability was 0.261.

And the relative viability (Everolimus + Palbociclib; first compound 0.03162 µM)?
The relative viability was 0.262.

What about the relative viability (Everolimus + Palbociclib; first compound 0.1 µM) of the same cell line?
Its relative viability is 0.282.

And the relative viability (Everolimus + Palbociclib; first compound 0.3162 µM)?
The relative viability was 0.3.

And the relative viability (Everolimus + Palbociclib; first compound 1 µM)?
Its relative viability is 0.272.

What about the relative viability (Everolimus + OSI-027; first compound 0.01 µM) of the same cell line?
The relative viability was 0.272.

And the relative viability (Everolimus + OSI-027; first compound 0.03162 µM)?
Its relative viability is 0.288.

What about the relative viability (Everolimus + OSI-027; first compound 0.1 µM) of the same cell line?
The relative viability was 0.257.

What about the relative viability (Everolimus + OSI-027; first compound 0.3162 µM) of the same cell line?
Its relative viability is 0.297.

What about the relative viability (Everolimus + OSI-027; first compound 1 µM) of the same cell line?
Its relative viability is 0.277.
